From patent US20240009436A1, “LOCALIZED […] OF […] […] AGENTS USING FOCUSED ULTRASOUND” (priority 2020, published 2024)

Legend:
[1] = system: vS1-vM1 circuit (wEPs in vM1); experiment: Whisker-evoked potentials (wEPs) in vM1 after delivery to vS1 in anesthetized rats; type: in vivo, rat
Protocol: The AU-FUS sequence [AU-FUS (in vivo); see Table 1] was tested in vivo by manipulating a specific cortical network without opening the BBB. Rat vibrissa motor cortex (vM1) receives whisker sensory information (˜80%) through projections from vibrissa sensory cortex (vS1, “Barrel cortex”). When rodent whiskers are mechanically deflected, evoked activity propagates from brainstem via thalamus to vS1, and then to vM1. During simultaneous recordings the peaks of whisker-evoked potentials (wEPs) were observed first in vS1 and ˜3.0 ms later in vM1. It was tested whether inhibiting vS1 by the novel technique would suppress wEPs in vM1 in anesthetized rats. The FUS transducer was positioned above the intact skull and focused on vS1. Using a multielectrode array, the wEPs and the whisker-evoked multi-unit activity in vM1 were monitored online. In parallel, muscimol-loaded UC-carriers were continuously (i.v.) injected. The AU-FUS sequence was applied repeatedly on vS1 to aggregate the UC-carriers and to uncage muscimol. Muscimol is an agonist of ionotropic GABAA receptors, the major receptor responsible for fast inhibitory transmission in the brain, which […] the BBB.
The animal was anesthetized, a small craniotomy was performed over vM1 (TZ region) or V1 for inserting a recording probe 140, and a FUS transducer 136 was positioned on the intact skull above vS1 with the help of stereotaxic coordinates and coupled with sterile ultrasound gel and water collimator.
Muscimol-loaded UC-carriers were injected intravenously through the tail vein using an infusion pump 110. vM1 and V1 recordings were performed on separate cohorts.
Whiskers were cut to around 15 mm length. The 8-12 largest whiskers were inserted into a glass capillary tube which was attached to a piezo actuator (T223-H4CL-503X, Piezo Systems). The piezo actuator was shielded with a custom-made copper cover. The whiskers were deflected with 120 Hz cosine pulses (292 mm/s velocity, displaced 2.34 mm in 8 ms) which were generated in LabView (National Instruments) and converted into an analog signal (DAC NI, USB-6211) which then drove the piezo actuator. Stimulus presentation was synchronized with the electrophysiological recordings with a TTL signal at stimulus onset. Whiskers were continuously stimulated at a repetition rate of 0.3 Hz.
All electrophysiological data were recorded with a RHD2000 system (Intan Technologies) with 30 kS/s sampling rate. All stereotaxic coordinates were determined with respect to bregma. A 32 channel Neuronexus probe (A2x16-10 mm-100-500-177-A32, 15 or 50 μm thick) attached to a motorized 3D arm (StereoDrive-960HD, Neurostar), fixed outside of the stereotaxic frame, was inserted into the vM1 (Coordinates AP: 1-2 mm, ML: 0.5-1 mm, depending on the vasculature, DV: 1.5-2 mm from pia) at 50° to the coronal plane. The probe was initially inserted ˜250-500 μm below the cortical surface. The FUS transducer was integrated with an acoustic collimator which was filled with degassed and deionized water and contained a polystyrene film (McMaster-Carr) at the end. The collimator's shape was designed according to the FUS transducer's geometry so that it would not interfere with the FUS beam. This assembly was stereotaxically positioned such that the FUS focal volume was targeted to vS1 (Coordinates AP: −2.3 mm, ML: 6 mm, DV: 3.3 mm from skull surface) at a 30° angle with respect to the sagittal plane such that the focal volume of FUS beam targeted cortical layers of vS1. […]

brain = details: cited from earlier work
[2] = system: VEPs in primary visual cortex (V1); experiment: Visually evoked potentials (VEPs) in V1 after delivery to vS1; type: in vivo, rat; details: muscimol delivered to vS1 using AU-FUS
Protocol: To rule out that the observed modulation of vM1 could be due to spreading of muscimol from vS1, signals were recorded from a cortical area close to vS1 but without significant connectivity with vS1: Muscimol was delivered to vS1 using AU-FUS, and the visually evoked potentials (VEPs) were measured from primary visual cortex (V1). […] V1 and vM1 recordings were done on separate cohorts. The same ultrasound parameters were used for both vS1-vM1 and vS1-V1 paradigms.
The protocol used for vS1-V1 was the same as vS1-vM1 paradigm with the following exceptions: FUS sonication coordinates were changed to AP: −2.3 mm, ML: 6.5 mm, DV: 3.3 mm from skull surface and FUS angle was changed from 30° to 34° to create space for electrode insertion to V1. A more lateral region of vS1 was sonicated to achieve better coupling with skull with the new angling of the FUS transducer. Electrode insertion coordinates were changed for V1 recording to AP: −5.5-6.0 mm, ML: 3.2-3.5 mm, DV: 1.6-2.0 mm to ensure that recording is done from cortical layers of V1. […] Instead of wEPs, VEPs were recorded by visual stimulation. […]
All electrophysiological data analysis was done in Python, version 3.6, using custom scripts. […] For wEP and VEP analysis, moving averages were calculated for a window step size of 180 whisker deflections/visual stimuli (moving step size is 1 deflection/visual stimulus). […]

[3] = rat barrel cortex; cited from earlier work
[4] = i.v., without AU-FUS or UC-carriers

For NCc1cc(=O)[nH]o1 [muscimol], the “change of wEPs in vM1, baseline vs post-treatment” value ([1]; free muscimol (250 ng) and vehicle-loaded UC-carriers with AU-FUS (control)) was “No statistically significant changes”, the “systemic muscimol needed for comparable reduction of wEPs” value [1, 4] was “at least 260 μg” and the “systemic muscimol needed for comparable reduction of wEPs, relative to measured payload of the UC-carriers” value [1, 4] was “at least 1300 times”. The “time of maximum inhibition in vM1” value ([1]; muscimol uncaged in vS1 by AU-FUS) was ≤ 20 min, the “change of wEPs in vM1, baseline vs post-treatment” value ([1]; systemic injection of free muscimol (250 ng) with AU-FUS (control)) was “No statistically significant changes” and the “amount of systemic muscimol required for brain inactivation” value (brain) was ~1.6 mg/kg. The “change of VEPs recorded from V1” value [2] was “No statistically significant changes” and the “diffusion coefficient D” value [3] was 8.7×10^−6 cm^2 s^−1.
